Experimental data as given in PMC10318456, “Selective inhibitors of the PSEN1–gamma-secretase complex” (The Journal of Biological Chemistry, 2023).

Legend:
Type in all cases: cell-based
[1] = target: T1, PSEN1 T147A–APH1A γ-secretase complex (Homo sapiens, UniProt P49768, T147A); test: Aβ40 secretion, MEF cell pool restored with PSEN1 T147A–APH1A; settings: decimal comma
T1 construct: expressed in transfected cells; host or cells: Psen1/2 double KO/Aph1ABC triple KO MEFs, pools without clonal selection
Protocol: (§1) We turned to experimental site–directed mutagenesis and selected a series of amino acids (Fig. 3) in the entrance channel for mutation to alanine. […] More importantly, they were all enzymatically active as shown by the secretion of Aβ40 in the supernatants of the cell cultures (Fig. 3B).
(§2) Conditional Psen1/2 double KO mice were crossed with conditional Aph1ABC triple KO mice ([29], [52], [58], [59]). At embryonic day 7.5, embryos were dissected and dissociated, and cells were plated in the presence of Dulbecco’s modified Eagle’s medium (DMEM)/F12 50% fetal calf serum (FCS) (Invitrogen). Primary MEFs were immortalized by transduction with LargeT antigen. Psen1/2 double KO/Aph1ABC triple KO MEFs were generated by transduction with a Cre-GFP–expressing adenoviral vector, and GFP-positive MEFs were sorted by fluorescence-activated cell sorting analysis. Psen1/2 Aph1ABC-deficient MEFs were maintained in DMEM/f12 10% FCS. To rescue γ-secretase expression, Psen1/2 double KO/Aph1ABC triple KO MEFs were transduced using Murine Stem Cell Virus retroviral vector system (pMSCV) viral vectors (Clontech) containing the human coding sequences of the different PSEN and APH1 homologs and the zeocin selection marker. An Internal Ribosome Entry Site sequence was cloned between the coding sequences for PSEN and APH1 to ensure co-expression of both proteins. Stable transfected cell lines were selected using 500-μg/ml zeocin (Invitrogen). Four different combinations were made: PSEN1 and APH1AL, PSEN1 and APH1B, PSEN2 and APH1AL, and PSEN2 and APH1B. These cell lines were transduced with pMSCV viral vectors (Clontech) expressing APP-C99-GFP-puromycin. […]
(§3) The number of plated cells and incubation times were determined in respect to linearity of Aβ peptide secretion, the dynamic range of Aβ peptide quantification in the medium, and sensitivity to dimethylsulfoxide (DMSO). […] The cell viability was assessed using the CellTiter-Glo Luminescent assay (Promega) that measures ATP production. […] We however measured five compounds at the Leuven site and noticed that absolute IC50 values were different (Fig. S2). […]

[2] = target: T2, PSEN1-APH1B γ-secretase complex (Homo sapiens, UniProt P49768); test: Aβ40 secretion by MEF cell line expressing only PSEN1-APH1B γ-secretase (APP-C99-GFP reporter); settings: 8 h, Beerse site unless otherwise indicated, read-out: IC50, Aβ40 peptides
T2 construct: expressed in transfected cells; host or cells: Psen1/2 double KO/Aph1ABC triple KO MEFs, pMSCV retroviral PSEN-IRES-APH1
Description: (§4) Mouse embryonic fibroblast (MEF) cells deficient for the Psen and Aph1 genes (Psen1/2^−/−, Aph1ABC^−/−) were reconstituted with human PSEN1 or PSEN2 and with human APH1A or APH1B to generate four independent cell lines, each constitutively expressing exclusively one type of γ-secretase complex (Fig. S1A) ([19]). A human APP-C99-GFP reporter was introduced to enable the measurement of Aβ peptides in the conditioned media of the cells to monitor γ-secretase activity. The assay was established in a 96-well format.
(§5) Conditional Psen1/2 double KO mice were crossed with conditional Aph1ABC triple KO mice ([29], [52], [58], [59]). At embryonic day 7.5, embryos were dissected and dissociated, and cells were plated in the presence of Dulbecco’s modified Eagle’s medium (DMEM)/F12 50% fetal calf serum (FCS) (Invitrogen). Primary MEFs were immortalized by transduction with LargeT antigen. Psen1/2 double KO/Aph1ABC triple KO MEFs were generated by transduction with a Cre-GFP–expressing adenoviral vector, and GFP-positive MEFs were sorted by fluorescence-activated cell sorting analysis. Psen1/2 Aph1ABC-deficient MEFs were maintained in DMEM/f12 10% FCS. To rescue γ-secretase expression, Psen1/2 double KO/Aph1ABC triple KO MEFs were transduced using Murine Stem Cell Virus retroviral vector system (pMSCV) viral vectors (Clontech) containing the human coding sequences of the different PSEN and APH1 homologs and the zeocin selection marker. An Internal Ribosome Entry Site sequence was cloned between the coding sequences for PSEN and APH1 to ensure co-expression of both proteins. Stable transfected cell lines were selected using 500-μg/ml zeocin (Invitrogen). Four different combinations were made: PSEN1 and APH1AL, PSEN1 and APH1B, PSEN2 and APH1AL, and PSEN2 and APH1B. These cell lines were transduced with pMSCV viral vectors (Clontech) expressing APP-C99-GFP-puromycin. After puromycin selection (5 μg/ml), GFP-positive cells were selected through FACS sorting. For the alanine mutagenesis experiment, pMSCV PSEN1-APH1A viral vectors were generated by using a long PCR-based QuikChange strategy (Stratagene). Stable cell lines without clonal selection were generated for each mutant as described above. All cell lines were regularly tested for the absence of mycoplasma and used for maximum 20 passages in culture.
(§6) The number of plated cells and incubation times were determined in respect to linearity of Aβ peptide secretion, the dynamic range of Aβ peptide quantification in the medium, and sensitivity to dimethylsulfoxide (DMSO). […] MEF cells were plated in DMEM F12 supplemented with 10% FCS at 10,000 cells per well in 96-well clear bottom plates in the late afternoon and cultured for 16 h at 37 °C, 5% CO2. In the morning of the second day, the medium was replaced with 60 μl of DMEM/F12 supplemented with 2% FCS, and GSI or DMSO (controls) were added. Compounds were tested in serial dilutions with concentrations ranging from […] to 0.1 nM with 3-fold changes. The final concentration of DMSO in all wells was 0.2%. Plates were put in the incubator again at 37 °C, 5% CO2. After 8 h, the culture media were collected, and 30 μl was used to measure Aβ40 peptides. The cell viability was assessed using the CellTiter-Glo Luminescent assay (Promega) that measures ATP production. All screens were performed at one site, and reported IC50 values throughout the manuscript are from this site (Beerse) unless otherwise indicated.
Standard 96-well SECTOR plates (MSD) were coated with 1.5 μg/ml anti-Aβ JRFcAβ40/28 capture antibody in a final volume of 50 μl of PBS 0.05% Tween 20.

[3] = target: T3, PSEN2-APH1A γ-secretase complex (Homo sapiens, UniProt P49810+Q92542+Q96BI3+Q9NZ42); test: Aβ40 secretion by MEF cell line expressing only PSEN2-APH1A γ-secretase (APP-C99-GFP reporter); settings: 8 h, Beerse site unless otherwise indicated, read-out: IC50, Aβ40 peptides
T3 construct: expressed in transfected cells; host or cells: Psen1/2 double KO/Aph1ABC triple KO MEFs, pMSCV retroviral PSEN-IRES-APH1
Description: as §4
as §2, with “(Invitrogen).” for “(Invitrogen). Four different combinations were made: PSEN1 and APH1AL, PSEN1 and APH1B, PSEN2 and APH1AL, and PSEN2 and APH1B. These cell lines were transduced with pMSCV viral vectors (Clontech) expressing APP-C99-GFP-puromycin.”
The number of plated cells and incubation times were determined in respect to linearity of Aβ peptide secretion, the dynamic range of Aβ peptide quantification in the medium, and sensitivity to dimethylsulfoxide (DMSO). […] The cell viability was assessed using the CellTiter-Glo Luminescent assay (Promega) that measures ATP production. […]

[4] = target: T4, PSEN1 T147A–APH1A γ-secretase complex (Homo sapiens, UniProt P49768+Q92542+Q96BI3+Q9NZ42, T147A); test: Aβ40 secretion, MEF cell pool restored with PSEN1 T147A–APH1A; settings: PSEN1 T147A (TM2)–APH1A cell pool; N = 3 to 4; mean (95% CI); decimal comma
T4 construct: expressed in transfected cells; host or cells: Psen1/2 double KO/Aph1ABC triple KO MEFs, pools without clonal selection
Protocol: as §1, §2, §3

[5] = target: T5, PSEN1 L172A–APH1A γ-secretase complex (Homo sapiens, UniProt P49768+Q92542+Q96BI3+Q9NZ42, L172A); test: Aβ40 secretion, MEF cell pool restored with PSEN1 L172A–APH1A; settings: PSEN1 L172A (TM3)–APH1A cell pool; N = 3 to 4; mean (95% CI); decimal comma
T5 construct: expressed in transfected cells; host or cells: Psen1/2 double KO/Aph1ABC triple KO MEFs, pools without clonal selection
Protocol: as §1, §5
as §6, with “indicated. We however measured five compounds at the Leuven site and noticed that absolute IC50 values were different (Fig. S2). The main goal of the current work is to explore the basis for inhibitor selectivity for different γ-secretases, and selectivity was consistent in the assays at the two sites (Fig. S2).” for “indicated.”
Standard 96-well SECTOR plates (MSD) were coated with 1.5 μg/ml anti-Aβ JRFcAβ40/28 capture antibody in a final volume of 50 μl of PBS 0.05% Tween 20. After overnight incubation at 4 °C, the plates were five times rinsed with PBS 0.05% Tween 20 and blocked with 150 μl per well of casein buffer (PBS with 1% casein, pH 7.4) for 4 h at room temperature. Standards (synthetic human Aβ 1–40) were diluted in culture media. […]

| IC50 ([1]; PSEN1 T147A (TM2)–APH1A cell pool, N = 3 to 4, mean (95% CI)) [µM] | IC50 fold change to WT ([1]; PSEN1 T147A–APH1A cell pool) | IC50 [2] [nM] | IC50 [3] [nM] | IC50 [4] [µM] | IC50 [5] [µM] | SMILES |
| --- | --- | --- | --- | --- | --- | --- |
| 0.477 | 2,826 fold |  |  |  |  | C[C@H](NC(=O)Cc1cc(F)cc(F)c1)C(=O)N[C@H](C(=O)OC(C)(C)C)c1ccccc1 [DAPT] |
|  |  | 6 | 1670 | 0.852 | 0.0094 | O=S(=O)(c1ccc(Cl)cc1)N1[C@H]2CC[C@@H]([C@H]1c1ccc(C(F)(F)F)cc1)[C@@H](O)C2 [(+)-9b] |
